Data set [1] concerns Rec1. Briefly: Antiproliferative activity against human Rec1 cells assessed as inhibition of cell proliferation incubated for 72 hrs by Cell-titer-Glo luminescent cell viability assay. Type of data set: functional, cell-based. The conditions noted are these: Rec1, 72 h.
Data set [2] concerns JeKo-1. Briefly: Antiproliferative activity against human JeKo1 cells assessed as inhibition of cell proliferation incubated for 72 hrs by Cell-titer-Glo luminescent cell viability assay. Type of data set: functional, cell-based. The conditions noted are these: JeKo-1, 72 h.
In data set [3] the test system is Maver1. Briefly: Antiproliferative activity against human Maver1 cells assessed as inhibition of cell proliferation incubated for 72 hrs by Cell-titer-Glo luminescent cell viability assay. Format: functional, cell-based. The conditions noted are these: Maver1, 72 h.
Data set [4] concerns Z-138. Kind of data set: Antiproliferative activity against human Z138 cells assessed as inhibition of cell proliferation incubated for 72 hrs by Cell-titer-Glo luminescent cell viability assay. Format: functional, cell-based. The conditions noted are these: Z-138, 72 h.
Data set [5] is described as follows: Antiproliferative activity against human Mino cells assessed as inhibition of cell proliferation incubated for 72 hrs by Cell-titer-Glo luminescent cell viability assay. Format: functional, cell-based.
The nature of data set [6]: Half life in human liver microsomes further incubated of 5 to 60 mins in presence of NADPH regenerating system by LC/MS analysis.
Data set [7] is described as follows: Stability in human liver microsomes assessed as compound remaining incubated of 60 mins in presence of NADPH regenerating system by LC/MS analysis. In general terms: Liver microsomes are a subcellular fraction often used to study metabolism.
Data set [8] is described as follows: in vitro. The conditions noted are these: human.
Description: Intrinsic clearance in human liver microsomes further incubated of 5 to 60 mins in presence of NADPH regenerating system by LC/MS analysis
Data set [9] is described as follows: in vitro. The conditions noted are these: human. The source holds these as a separate data set.
Description: Hepatic clearance in human liver microsomes further incubated of 5 to 60 mins in presence of NADPH regenerating system by LC/MS analysis

From ChEMBL document CHEMBL4316622, “Discovery of novel pyrazole derivatives as potential anticancer agents in MCL” (Bioorg Med Chem Lett, 2019) come the findings set out here.

As a reminder, the IC50 is the midpoint of a concentration-inhibition curve. As to `C=CC(=O)Nc1cccc(Cn2nc(-c3ccc(Oc4ccccc4)cc3)cc2C(=O)O)c1`, the IC50 in [1] was 33.1 µM; in data set [2], more than 60 µM; in [3], 37.4 µM; in data set [4] it was 28.5 µM; in data set [5], 24.3 µM.

Consider `O=C(CCl)Nc1ccc(Cn2nc(-c3ccc(Oc4ccccc4)cc3)cc2CO)cc1`, for which the IC50 in data set [1], in [2], in data set [3], in data set [4] and in data set [5] was 0.4 µM each time.

By half-life is commonly meant the time in which the quantity being followed falls by half. By share remaining is commonly meant the share of the starting amount still present when the sample was taken. The microsomal CLint is a measure of how fast metabolising enzymes remove a compound, apart from limits set by blood flow. Higher therefore signals rapid turnover. What is called CLint scaled is a measure of how fast metabolising enzymes remove a compound, apart from limits set by blood flow. A higher CLint scaled goes with faster metabolism. On to `O=C(CCl)Nc1cccc(Cn2nc(-c3ccc(Oc4ccccc4)cc3)cc2CO)c1`, for which the IC50 in data set [1], in [2], in [3], in data set [4] and in data set [5] was 0.4 µM in each case. Further, the half-life in [6] (liver microsomes) came to 10.6 min. In addition, the fraction remaining at 1 h in data set [7] (liver microsomes) turned out to be 1.5%. Moreover, the microsomal CLint in data set [8] (liver microsomes) is 131 µL/min/mg. The same compound returned a CLint scaled in data set [9] (liver microsomes) of 118 mL/min/kg.

With `C=CC(=O)Nc1cccc(Cn2nc(-c3ccc(Oc4ccccc4)cc3)cc2CO)c1`, the IC50 was found to be 1.3 µM in [1]; 5.2 µM in [2]; 6.7 µM in data set [3]; 6 µM in data set [4]; 3.3 µM in data set [5].

On to `C=CC(=O)Nc1ccc(Cn2nc(-c3ccc(Oc4ccccc4)cc3)cc2C(=O)OCC)cc1`, for which the IC50 worked out at 2.8 µM in [1]; 10.9 µM in data set [2]; 13.3 µM in [3]; 12.5 µM in [4]; 5.4 µM in data set [5].

In the case of `C/C=C/C(=O)Nc1cccc(Cn2nc(-c3ccc(Oc4ccccc4)cc3)cc2C(=O)OCC)c1`, the IC50 in [1] amounted to 7.8 µM; in [2], 16.7 µM; in data set [3] it was 14.2 µM; in [4], 8.9 µM; in data set [5] it was 16.5 µM.

On to `C/C=C/C(=O)Nc1ccc(Cn2nc(-c3ccc(Oc4ccccc4)cc3)cc2C(=O)O)cc1`, for which the IC50 is 23.6 µM in data set [1]; more than 60 µM in data set [2]; more than 60 µM in data set [3]; more than 60 µM in [4]; 23.1 µM in data set [5].

On to `C=CC(=O)Nc1ccc(Cn2nc(-c3ccc(Oc4ccccc4)cc3)cc2C(=O)O)cc1`, for which the half-inhibitory concentration (IC50) in data set [1], in data set [2], in data set [3], in [4] and in data set [5] was more than 60 µM in each case.

Take `C/C=C/C(=O)Nc1cccc(Cn2nc(-c3ccc(Oc4ccccc4)cc3)cc2CO)c1`: the IC50 stood at 3.4 µM in [1]; 22.6 µM in data set [2]; 8.1 µM in data set [3]; 5.7 µM in [4]; 4.9 µM in data set [5].

On to `C/C=C/C(=O)Nc1cccc(Cn2nc(-c3ccc(Oc4ccccc4)cc3)cc2C(=O)O)c1`, for which the half-maximal inhibitory concentration (IC50) is 26 µM in data set [1]; more than 60 µM in data set [2]; 31.6 µM in data set [3]; 24.1 µM in [4]; 23.3 µM in data set [5].

As to `O=C(CCl)Nc1cccc(Cn2nc(-c3ccc(Oc4ccccc4)cc3)cc2C(=O)O)c1`, the IC50 in [1] worked out at 7.1 µM; in data set [2], 6.3 µM; in data set [3] it was 4.7 µM; in data set [4] it was 9.1 µM; in data set [5], 11.7 µM.

With `CCOC(=O)c1cc(-c2ccc(Oc3ccccc3)cc2)nn1Cc1ccc(NC(=O)CCl)cc1`, the IC50 in data set [1] stood at 0.4 µM; in data set [2], 0.4 µM; in [3] it was 0.4 µM; in data set [4] it was 0.4 µM; in data set [5], 0.6 µM.

As to `C/C=C/C(=O)Nc1ccc(Cn2nc(-c3ccc(Oc4ccccc4)cc3)cc2CO)cc1`, the IC50 is 12.2 µM in [1]; more than 60 µM in data set [2]; 48.4 µM in data set [3]; 54.5 µM in data set [4]; 40.2 µM in data set [5].

Regarding `C=CC(=O)Nc1cccc(Cn2nc(-c3ccc(Oc4ccccc4)cc3)cc2C(=O)OCC)c1`, the IC50 was 3.3 µM in data set [1]; 7.6 µM in [2]; 8.6 µM in data set [3]; 7.8 µM in data set [4]; 5.7 µM in data set [5].

On to `C/C=C/C(=O)Nc1ccc(Cn2nc(-c3ccc(Oc4ccccc4)cc3)cc2C(=O)OCC)cc1`, for which the IC50 in data set [1] was 13.1 µM; in data set [2], 52.5 µM; in [3], more than 60 µM; in [4], more than 60 µM; in [5] it was 33.2 µM.

Consider `CCOC(=O)c1cc(-c2ccc(Oc3ccccc3)cc2)nn1Cc1cccc(NC(=O)CCl)c1`, for which the half-inhibitory concentration (IC50) in data set [1] was found to be 0.4 µM; in data set [2] it was 0.4 µM; in data set [3], 0.5 µM; in data set [4] it was 0.4 µM; in data set [5] it was 1 µM.

As for `O=C(CCl)Nc1ccc(Cn2nc(-c3ccc(Oc4ccccc4)cc3)cc2C(=O)O)cc1`, the IC50 in data set [1] is 4 µM; in [2], 2.5 µM; in [3], 1.2 µM; in [4], 1.5 µM; in [5], 4.5 µM.

`C=CC(=O)Nc1ccc(Cn2nc(-c3ccc(Oc4ccccc4)cc3)cc2CO)cc1`: the IC50 in data set [1] is 3.5 µM; in data set [2], 8 µM; in data set [3], 7 µM; in [4], 6.8 µM; in data set [5], 5.2 µM.

For `C/C=C/C(=O)N1CCCC(n2nc(-c3ccc(Oc4ccccc4)cc3)cc2C(=O)O)C1` (racemic), the IC50 was 31 µM in [1]; more than 60 µM in data set [2]; more than 60 µM in data set [3]; more than 60 µM in data set [4]; more than 60 µM in data set [5].

For `C/C=C/C(=O)N1CCCC(n2nc(-c3ccc(Oc4ccccc4)cc3)cc2CO)C1` (racemic), the IC50 in [1] is 27.2 µM; in data set [2], more than 60 µM; in data set [3], more than 60 µM; in [4], 51.1 µM; in data set [5], 45 µM.

Consider `O=C(O)c1cc(-c2ccc(Oc3ccccc3)cc2)nn1C1CCCN(C(=O)CCl)C1` (racemic), for which the IC50 in data set [1] stood at 2.2 µM; in [2], 3.6 µM; in data set [3], 0.4 µM; in data set [4] it was 2.8 µM; in [5], 2.5 µM.

Turning to `C=CC(=O)N1CCCC(n2nc(-c3ccc(Oc4ccccc4)cc3)cc2C(=O)O)C1` (racemic), the IC50 in data set [1] was 50 µM; in [2] it was more than 60 µM; in [3], more than 60 µM; in data set [4] it was more than 60 µM; in data set [5], more than 60 µM.

In the case of `C=CC(=O)N1CCCC(n2nc(-c3ccc(Oc4ccccc4)cc3)cc2C(=O)OCC)C1` (racemic), the IC50 in [1] is 13.8 µM; in [2], 21.2 µM; in [3], more than 60 µM; in data set [4], 44 µM; in [5] it was 42.3 µM.

For `C/C=C/C(=O)N1CCCC(n2nc(-c3ccc(Oc4ccccc4)cc3)cc2C(=O)OCC)C1` (racemic), the IC50 in data set [1] turned out to be 5.1 µM; in [2] it was 26.5 µM; in data set [3] it was 19.6 µM; in data set [4], 19.1 µM; in data set [5], 11.7 µM.

Regarding `C=CC(=O)N1CCCC(n2nc(-c3ccc(Oc4ccccc4)cc3)cc2CO)C1` (racemic), the IC50 in [1] stood at 5.4 µM; in data set [2], 11.9 µM; in data set [3] it was 30.5 µM; in data set [4] it was 14.6 µM; in data set [5] it was 15.4 µM.

`O=C(CCl)N1CCCC(n2nc(-c3ccc(Oc4ccccc4)cc3)cc2CO)C1` (racemic): the IC50 in data set [1] is 0.4 µM; in [2] it was 7.8 µM; in data set [3], 1.1 µM; in [4] it was 0.4 µM; in [5] it was 6 µM.

On to `CCOC(=O)c1cc(-c2ccc(Oc3ccccc3)cc2)nn1C1CCCN(C(=O)CCl)C1` (racemic), for which the half-inhibitory concentration (IC50) came to 0.4 µM in data set [1]; 0.8 µM in data set [2]; 1.2 µM in [3]; 1.3 µM in data set [4]; 1.2 µM in [5].

`O=C(O)Cc1ccccc1Nc1c(Cl)cccc1Cl` [DICLOFENAC]: the half-life in [6] (microsomes) is 11.5 min. Also, the microsomal CLint in data set [8] (microsomes) was 121 µL/min/mg. Besides, the CLint scaled in [9] (microsomes) was 109 mL/min/kg.

`C=CC(=O)N1CCC[C@@H](n2nc(-c3ccc(Oc4ccccc4)cc3)c3c(N)ncnc32)C1` [IBRUTINIB]: the half-inhibitory concentration (IC50) was 1.1 µM in data set [1]; 1.5 µM in [2]; 10.4 µM in data set [3]; 11.3 µM in data set [4]; 10.1 µM in data set [5].

With `C[C@]12CC[C@H]3[C@@H](CCC4=CC(=O)CC[C@@]43C)[C@@H]1CC[C@@H]2O` [TESTOSTERONE], in [7] (microsomes), the share remaining at 1 h was 4.2%.
